In ChEMBL document CHEMBL1128438, “A priori prediction of activity for HIV-1 protease inhibitors employing energy minimization in the active site” (J Med Chem, 1995):

What was measured:
[1] = biological target: T1, Human immunodeficiency virus type 1 protease (Human immunodeficiency virus 1, UniProt Q72874); test: In vitro inhibition of HIV-1 protease
[2] = biological target: T1, Human immunodeficiency virus type 1 protease; test: Inhibition of HIV-1 protease was determined in vitro

Compound | IC50 [1] [nM] | IC50 [2] [nM]
CC(C)(C)OC(=O)N[C@@H](Cc1ccccc1)[C@@H](O)C[C@@](C)(Cc1ccccc1)C(=O)N[C@H]1c2ccccc2C[C@H]1O | 7.7 | 
C[C@@H](NC(=O)[C@H](Cc1ccccc1)C[C@H](O)[C@H](Cc1ccccc1)NC(=O)OC(C)(C)C)C1CCCCC1 | 146 | 
CC(C)(C)NC(=O)[C@@H]1C[C@@H]2CCCC[C@@H]2CN1CC(O)CN1C[C@H]2CCCC[C@H]2C[C@H]1C(=O)NC(C)(C)C |  | 6760
CC(C)(C)OC(=O)N[C@@H](Cc1ccccc1)[C@@H](O)C[C@@H](Cc1ccccc1)C(=O)N[C@H]1C=CC[C@H]1O | 9.53 | 
CC(C)(C)OC(=O)N[C@@H](Cc1ccccc1)[C@@H](O)C[C@@H](Cc1ccccc1)C(=O)N[C@H]1c2ccccc2CC[C@H]1O | 0.7 | 
CC(C)(C)NC(=O)[C@@H]1C[C@@H]2CCCC[C@@H]2CN1CC(O)[C@H](Cc1ccccc1)NC(=O)OC(C)(C)C (stereo not given in full) |  | 3020
CC(C)(C)OC(=O)N[C@@H](Cc1ccccc1)[C@@H](O)C[C@@H](CSc1ccccc1)C(=O)N[C@H]1c2ccccc2C[C@H]1O | 0.25 | 
CC(C)(C)NC(=O)[C@@H]1C[C@@H]2CCCC[C@@H]2CN1C[C@@H](O)C[C@@H](Cc1ccccc1)C(=O)N[C@H]1c2ccccc2C[C@H]1O |  | 7.59
CC(C)(C)OC(=O)CN(Cc1ccccc1)C[C@@H](O)[C@H](Cc1ccccc1)NC(=O)OC(C)(C)C |  | 4680
C=CC[C@H](C[C@H](O)[C@H](Cc1ccccc1)NC(=O)OC(C)(C)C)C(=O)N[C@H]1c2ccccc2C[C@H]1O | 27.5 | 
CC(C)(C)OC(=O)N[C@@H](Cc1ccccc1)[C@@H](O)C[C@@H](Cc1ccncc1)C(=O)N[C@H]1c2ccccc2C[C@H]1O | 0.53 | 
CC(C)(C)OC(=O)N[C@@H](Cc1ccccc1)[C@@H](O)/C=C(/Cc1ccccc1)C(=O)N[C@H]1c2ccccc2C[C@H]1O |  | 1.29
CC(C)(C)OC(=O)N[C@@H](Cc1ccccc1)[C@@H](O)C[C@@H](Cc1ccccc1)C(=O)NCc1ccccc1 | 114 | 
CC(C)(C)OC(=O)N[C@@H](Cc1ccccc1)[C@@H](O)C[C@@H](Cc1ccccc1)C(=O)N[C@H]1c2ccccc2OC[C@H]1O | 0.18 | 
CC(C)(C)OC(=O)N[C@@H](Cc1ccccc1)[C@@H](O)C[C@@H](Cc1ccccc1)C(=O)NCC1CCCCC1 | 30000 | 
CC(C)[C@H](NC(=O)[C@H](Cc1ccccc1)C[C@H](O)[C@H](Cc1ccccc1)NC(=O)OC(C)(C)C)C(=O)O | 161 | 
COC(=O)[C@@H]1Cc2ccccc2[C@@H]1NC(=O)[C@H](Cc1ccccc1)C[C@H](O)[C@H](Cc1ccccc1)NC(=O)OC(C)(C)C | 66.3 | 
O=C(N[C@H]1c2ccccc2C[C@H]1O)[C@H](Cc1ccccc1)CC(O)C[C@@H](Cc1ccccc1)C(=O)N[C@H]1c2ccccc2C[C@H]1O |  | 0.692

Compound | IC50 [1] [nM] | IC50 [2] [nM]
CC(C)(C)OC(=O)N[C@@H](Cc1ccccc1)[C@@H](O)C[C@@H](Cc1ccccc1)C(=O)N[C@H](CO)c1ccccc1 | 38.6 | 
CC(C)(C)OC(=O)N[C@@H](Cc1ccccc1)[C@@H](O)CC(=O)NC1c2ccccc2C[C@H]1O (stereo not given in full) |  | 568
CC(C)(C)OC(=O)N[C@@H](Cc1ccccc1)[C@H](O)CN[C@@H](Cc1ccccc1)C(=O)N[C@H]1c2ccccc2C[C@H]1O |  | 229
CC(C)(C)OC(=O)N[C@@H](Cc1ccccc1)[C@@H](O)C[C@]1(Cc2ccccc2)CCCN([C@H]2c3ccccc3C[C@H]2O)C1=O |  | 1270
CC(C)(C)OC(=O)N[C@@H](Cc1ccccc1)[C@@H](O)C[C@@H](Cc1ccccc1)C(=O)N[C@H](CO)Cc1ccccc1 | 690 | 
CC(C)(C)OC(=O)N[C@@H](Cc1ccccc1)[C@@H](O)C[C@@H](CCCc1ccccc1)C(=O)N[C@H]1c2ccccc2[C@@H](O)[C@H]1O | 0.19 | 
CC(C)(C)OC(=O)N[C@@H](Cc1ccccc1)[C@@H](O)C[C@@H](Cc1ccc(C(C)(C)C)cc1)C(=O)N[C@H]1c2ccccc2C[C@H]1O | 0.17 | 
CC(C)(C)OC(=O)N[C@@H](Cc1ccc(O)cc1)[C@@H](O)[C@@H]1CCC[C@H]1C(=O)NCc1ccccc1 |  | 589
CC(C)(C)OC(=O)N[C@@H](Cc1ccccc1)[C@@H](O)C[C@@H](Cc1ccccc1)C(=O)N[C@@H]1c2ccccc2OC[C@@H]1O | 40.5 | 
CC(C)(C)OC(=O)N[C@@H](Cc1ccccc1)[C@@H](O)C[C@@H](Cc1ccccc1)C(=O)N[C@H]1c2ccccc2C[C@H]1O | 0.25 | 
CC(C)(C)OC(=O)N[C@@H](Cc1ccccc1)[C@@H](O)C[C@@H](Cc1ccccc1)C(=O)N[C@@H]1CCc2ccccc21 | 34.2 | 
CC(C)(C)OC(=O)N[C@@H](Cc1ccccc1)[C@@H](O)[C@H](O)[C@H](Cc1ccccc1)NC(=O)OC(C)(C)C |  | 1370
CC(C)(C)OC(=O)N[C@@H](Cc1ccccc1)[C@@H](O)C[C@@H](Cc1ccccc1)C(=O)N[C@@]1(C)c2ccccc2C[C@H]1O | 212 | 
CC(C)[C@H](NC(=O)[C@H](Cc1ccccc1)C[C@H](O)CN1C[C@H]2CCCC[C@H]2C[C@H]1C(=O)NC(C)(C)C)C(=O)Nc1ccc2ccccc2n1 |  | 52.8
CC(C)(C)OC(=O)N[C@@H](Cc1ccccc1)[C@@H](O)C[C@@H](CC(=O)c1ccccc1)C(=O)N[C@H]1c2ccccc2C[C@H]1O | 5.42 | 
CC(C)(C)OC(=O)N[C@@H](Cc1ccccc1)[C@@H](O)CCC(=O)N[C@H]1c2ccccc2C[C@H]1O | 2930 | 
CC(C)(C)OC(=O)N[C@@H](Cc1ccccc1)[C@@H](O)C[C@@H](Cc1ccccc1)C(=O)N[C@H]1CCCC[C@H]1O | 122 | 
